# Measured values: US9273057B2 (Bristol-Myers Squibb Company, priority 2012, dated 2016)
# pIC50: −log10 of the molar value. Where a name gives a salt, the structure may show the parent alone.
# Molecular target: CK2A1 (CK2α/β) (Homo sapiens, UniProt P68400)
# Assay: CK2 kinase assay, CK2A1 (CK2α/β)
# Type: biochemical
# Settings: Table A; read-out: CK2A1 (CK2α/β) (IC50)
# Chain of CK2A1 (CK2α/β) (P68400 whole entry, species assumed): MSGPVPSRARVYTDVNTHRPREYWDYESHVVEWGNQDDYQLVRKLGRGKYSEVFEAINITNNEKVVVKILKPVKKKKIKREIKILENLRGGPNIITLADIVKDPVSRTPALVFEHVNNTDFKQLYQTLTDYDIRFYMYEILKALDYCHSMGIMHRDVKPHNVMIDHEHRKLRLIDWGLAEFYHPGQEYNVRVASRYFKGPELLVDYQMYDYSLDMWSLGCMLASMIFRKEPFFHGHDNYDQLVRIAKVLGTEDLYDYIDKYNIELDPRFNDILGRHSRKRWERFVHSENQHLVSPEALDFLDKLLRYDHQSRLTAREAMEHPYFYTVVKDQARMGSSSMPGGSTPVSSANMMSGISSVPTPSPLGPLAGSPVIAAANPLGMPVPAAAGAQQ
# Chain of CK2A1 (CK2α/β) (P67870 whole entry partner, species assumed): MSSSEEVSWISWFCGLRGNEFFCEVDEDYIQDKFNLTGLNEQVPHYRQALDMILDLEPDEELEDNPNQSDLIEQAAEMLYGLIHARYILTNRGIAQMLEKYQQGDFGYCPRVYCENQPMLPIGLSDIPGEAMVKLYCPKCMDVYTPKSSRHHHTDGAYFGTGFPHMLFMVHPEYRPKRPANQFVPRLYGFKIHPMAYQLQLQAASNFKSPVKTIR
row,SMILES,pIC50
1,"CCNc1nc(Nc2cc(C#N)cc(C3CN(C4COC4)C3)c2Cl)nn2c(C#N)cnc12 [Example 359, 2-((2-chloro-5-cyano-3-(1-(oxetan-3-yl)azetidin-3-yl)phenyl)amino)-4-(ethylamino)imidazo[2,1-f][1,2,4]triazine-7-carbonitrile]",8.80
2,"CCNc1nc(Nc2cc(C#N)cc(N3CC(N4CCN(C)CC4)C3)c2Cl)nn2c(C#N)cnc12 [Example 360, 2-((2-chloro-5-cyano-3-(3-(4-methylpiperazin-1-yl)azetidin-1-yl)phenyl)amino)-4-(ethylamino)imidazo[2,1-f][1,2,4]triazine-7-carbonitrile]",9.14
3,"CCNc1nc(Nc2cc(C#N)cc(N3CCC(NC4COC4)CC3)c2Cl)nn2c(C#N)cnc12 [Example 363, 2-((2-chloro-5-cyano-3-(4-(oxetan-3-ylamino)piperidin-1-yl)phenyl)amino)-4-(ethylamino)imidazo[2,1-f][1,2,4]triazine-7-carbonitrile]",9.11
4,"CCNc1nc(Nc2cc(C#N)cc(N3CCC(N(C)C4COC4)CC3)c2Cl)nn2c(C#N)cnc12 [Example 365, 2-((2-chloro-5-cyano-3-(4-(methyl(oxetan-3-yl)amino)piperidin-1-yl)phenyl)amino)-4-(ethylamino)imidazo[2,1-f][1,2,4]triazine-7-carbonitrile]",8.48
5,"CCNc1nc(Nc2cc(C#N)cc(N3CCC(N(C(=O)OC)C4COC4)CC3)c2Cl)nn2c(C#N)cnc12 [Example 366, methyl (1-(2-chloro-5-cyano-3-((7-cyano-4-(ethylamino)imidazo[2,1-f][1,2,4]triazin-2-yl)amino)phenyl)piperidin-4-yl)(oxetan-3-yl)carbamate]",9.11
6,"CCNc1nc(Nc2cc(C#N)cc(C3CNC3)c2Cl)nn2c(C#N)cnc12 [Example 367, 2-((3-(azetidin-3-yl)-2-chloro-5-cyanophenyl)amino)-4-(ethylamino)imidazo[2,1-f][1,2,4]triazine-7-carbonitrile]",8.93
7,"CCNc1nc(Nc2cc(C#N)cc(C3CN(C[C@H](C)O)C3)c2Cl)nn2c(C#N)cnc12 [Example 368, (S)-2-((2-chloro-5-cyano-3-(1-(2-hydroxypropyl)azetidin-3-yl)phenyl)amino)-4-(ethylamino)imidazo[2,1-f][1,2,4]triazine-7-carbonitrile]",8.44
8,"CCNc1nc(Nc2cc(C#N)cc(C3CN(C(=O)CC#N)C3)c2Cl)nn2c(C#N)cnc12 [Example 369, 2-((2-chloro-5-cyano-3-(1-(2-cyanoacetyl)azetidin-3-yl)phenyl)amino)-4-(ethylamino)imidazo[2,1-f][1,2,4]triazine-7-carbonitrile]",8.80
9,"CCNc1nc(Nc2cc(C#N)cc(N3CC[C@H]4NC(=O)O[C@@H]4C3)c2Cl)nn2c(C#N)cnc12 [Example 375, 2-((2-chloro-5-cyano-3-((3aR,7aR)-2-oxohexahydrooxazolo[5,4-c]pyridin-5(2H)-yl)phenyl)amino)-4-(ethylamino)imidazo[2,1-f][1,2,4]triazine-7-carbonitrile]",9.37
10,"CCNc1nc(Nc2cc(C#N)cc(N3CC[C@@H](NC(=O)OCCOCCOCCOCCOCCOCCOC)[C@H](O)C3)c2Cl)nn2c(C#N)cnc12 [Example 376, 2,5,8,11,14,17-hexaoxanonadecan-19-yl((3R,4R)-1-(2-chloro-5-cyano-3-((7-cyano-4-(ethylamino)imidazo[2,1-f][1,2,4]triazin-2-yl)amino)phenyl)-3-hydroxypiperidin-4-yl)carbamate]",9.08
11,"CCNc1nc(Nc2cc(C#N)cc(N3CC[C@@H](NC[C@H](C)O)[C@H](O)C3)c2Cl)nn2c(C#N)cnc12 [Example 377, 2-((2-chloro-5-cyano-3-((3R,4R)-3-hydroxy-4-(((S)-2-hydroxypropyl)amino)piperidin-1-yl)phenyl)amino)-4-(ethylamino)imidazo[2,1-f][1,2,4]triazine-7-carbonitrile]",9.21
12,"N#CCC1(N2CCC(c3cc(C#N)cc(Nc4nc(NC5CC5)c5ncc(C#N)n5n4)c3Cl)CC2)COC1 [Example 378, 2-((2-chloro-5-cyano-3-(1-(3-(cyanomethyl)oxetan-3-yl)piperidin-4-yl)phenyl)amino)-4-(cyclopropylamino)imidazo[2,1-f][1,2,4]triazine-7-carbonitrile]",9.09
13,"C=CC1(N2CCC(c3cc(C#N)cc(Nc4nc(NC5CC5)c5ncc(C#N)n5n4)c3Cl)CC2)COC1 [Example 379, 2-((2-chloro-5-cyano-3-(1-(3-vinyloxetan-3-yl)piperidin-4-yl)phenyl)amino)-4-(cyclopropylamino)imidazo[2,1-f][1,2,4]triazine-7-carbonitrile]",8.58
14,"CCNc1nc(Nc2cc(C#N)cc(N3CC[C@@H](NC(=O)OC)[C@H](O)C3)c2F)nn2c(C#N)cnc12 [Example 381, methyl ((3R,4R)-1-(5-cyano-3-((7-cyano-4-(ethylamino)imidazo[2,1-f][1,2,4]triazin-2-yl)amino)-2-fluorophenyl)-3-hydroxypiperidin-4-yl)carbamate]",9.28
15,"CCNc1nc(Nc2cc(C#N)cc(N3CC(N4CCN(C)CC4)C3)c2F)nn2c(C#N)cnc12 [Example 383, 2-((5-cyano-2-fluoro-3-(3-(4-methylpiperazin-1-yl)azetidin-1-yl)phenyl)amino)-4-(ethylamino)imidazo[2,1-f][1,2,4]triazine-7-carbonitrile]",9.11
16,"N#Cc1cc(Nc2nc(NC3CC3)c3ncc(C#N)n3n2)c(F)c(C2CCN(C3COC3)CC2)c1 [Example 384, 2-((5-cyano-2-fluoro-3-(1-(oxetan-3-yl)piperidin-4-yl)phenyl)amino)-4-(cyclopropylamino)imidazo[2,1-f][1,2,4]triazine-7-carbonitrile]",9.37
17,"COC(=O)Nc1cc(Nc2nc(NC3CC3)c3ncc(C#N)n3n2)c(F)c(N2CCN(C)CC2)c1 [Example 385, methyl (3-((7-cyano-4-(cyclopropylamino)imidazo[2,1-f][1,2,4]triazin-2-yl)amino)-4-fluoro-5-(4-methylpiperazin-1-yl)phenyl)carbamate]",8.65
18,"CCNc1nc(Nc2cc(NC(=O)OC)cc(N3CCN(C)CC3)c2F)nn2c(C#N)cnc12 [Example 386, methyl (3-((7-cyano-4-(ethylamino)imidazo[2,1-f][1,2,4]triazin-2-yl)amino)-4-fluoro-5-(4-methylpiperazin-1-yl)phenyl)carbamate]",8.24
19,"COC(=O)N[C@H]1CCN(c2cc(C(N)=O)cc(Nc3nc(NC4CC4)c4ncc(C#N)n4n3)c2Cl)C[C@@H]1O [Example 388, methyl ((3S,4S)-1-(5-carbamoyl-2-chloro-3-((7-cyano-4-(cyclopropylamino)imidazo[2,1-f][1,2,4]triazin-2-yl)amino)phenyl)-3-hydroxypiperidin-4-yl)carbamate]",8.29
20,"C[C@@H](O)Cn1nc(C#N)c2cc(Nc3nc(NC4CC4)c4ncc(C#N)n4n3)ccc21 [Example 393, (R)-2-((3-cyano-1-(2-hydroxypropyl)-1H-indazol-5-yl)amino)-4-(cyclopropylamino)imidazo[2,1-f][1,2,4]triazine-7-carbonitrile, HCl]",9.37

# More lines, now with the values ahead:
row,pIC50,SMILES
1,8.74,"COC(=O)Nc1cc(Nc2nc(NC3CC3)c3ncc(C#N)n3n2)c(Cl)c(C2CCN(C)CC2)c1 [Example 397, Methyl-4-chloro-3-(7-cyano-4-(cyclopropylamino)imidazo[1,2-f][1,2,4]triazin-2-ylamino)-5-(1-methylpiperidin-4-yl)phenylcarbamate]"
2,8.48,"CCNc1nc(Nc2cc(NC(=O)OC)cc(C3CCN(C)CC3)c2Cl)nn2c(C#N)cnc12 [Example 398, methyl (4-chloro-3-((7-cyano-4-(ethylamino)imidazo[2,1-f][1,2,4]triazin-2-yl)amino)-5-(1-methylpiperidin-4-yl)phenyl)carbamate]"
3,9.31,"N#Cc1cc(C=O)c(Cl)c(Nc2nc(NC3CC3)c3ncc(C#N)n3n2)c1 [Example 400, 2-((2-chloro-5-cyano-3-formylphenyl)amino)-4-(cyclopropylamino)imidazo[2,1-f][1,2,4]triazine-7-carbonitrile]"
4,9.42,"CS(=O)(=O)N1CCN(Cc2cc(C#N)cc(Nc3nc(NC4CC4)c4ncc(C#N)n4n3)c2Cl)CC1 [Example 401, 2-((2-chloro-5-cyano-3-((4-(methylsulfonyl)piperazin-1-yl)methyl)phenyl)amino)-4-(cyclopropylamino)imidazo[2,1-f][1,2,4]triazine-7-carbonitrile]"
5,9.16,"N#Cc1cc(CN2CCN(C3COC3)CC2)c(Cl)c(Nc2nc(NC3CC3)c3ncc(C#N)n3n2)c1 [Example 403, 2-((2-chloro-5-cyano-3-((4-(oxetan-3-yl)piperazin-1-yl)methyl)phenyl)amino)-4-(cyclopropylamino)imidazo[2,1-f][1,2,4]triazine-7-carbonitrile HCl salt]"
6,9.27,"N#Cc1cc(CN2CCOCC2)c(Cl)c(Nc2nc(NC3CC3)c3ncc(C#N)n3n2)c1 [Example 404, 2-((2-chloro-5-cyano-3-(morpholinomethyl)phenyl)amino)-4-(cyclopropylamino)imidazo[2,1-f][1,2,4]triazine-7-carbonitrile]"
7,9.32,"CN1CCN(C2CN(c3cc(OC(F)F)cc(Nc4nc(NC5CC5)c5ncc(C#N)n5n4)c3Cl)C2)CC1 [Example 405, 2-((2-chloro-5-(difluoromethoxy)-3-(3-(4-methylpiperazin-1-yl)azetidin-1-yl)phenyl)amino)-4-(cyclopropylamino)imidazo[2,1-f][1,2,4]triazine-7-carbonitrile]"
8,8.67,"N#Cc1cnc2c(NC3CC3)nc(Nc3cc(OC(F)F)cc(N4CCOCC4)c3Cl)nn12 [Example 406, 2-(2-chloro-5-(difluoromethoxy)-3-morpholinophenylamino)-4-(cyclopropylamino)imidazo[1,2-f][1,2,4]triazine-7-carbonitrile]"
9,8.75,"N#Cc1cnc2c(NC3CC3)nc(Nc3cc(C(F)F)cc(C4CCN(C5COC5)CC4)c3Cl)nn12 [Example 407, 2-((2-chloro-5-(difluoromethyl)-3-(1-(3-oxetanyl)-4-piperidinyl)phenyl)amino)-4-(cyclopropylamino)imidazo[2,1-f][1,2,4]triazine-7-carbonitrile]"
